Test results: patent publication US9695155B2, “Herbicidal substituted pyrimidinyloxy benzene compounds” (E. I. DU PONT DE NEMOURS AND COMPANY, priority 2013, dated 2017)

Key:
barnyardgrass [1] = test: Test A preemergence; format: in vivo, Echinochloa crus-galli; details: for Barnyardgrass plant response rating: 500 g ai/ha
Method in brief: (§1)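 Compounds in non-phytotoxic solvent with surfactant applied as soil spray preemergence, or postemergence to plants 2-10 cm at one- to two-leaf stage, in loam/sand. After approximately 10 days in greenhouse, injury rated visually versus untreated controls, 0 (no effect) to 100 (complete control).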

large (Lg) crabgrass [2] = test: Test A preemergence; format: in vivo, Digitaria sanguinalis; details: for Crabgrass, Large plant response rating: 500 g ai/ha
Method in brief: as §1

giant foxtail [3] = test: Test A preemergence; format: in vivo, Setaria faberii; details: for Foxtail, Giant plant response rating: 500 g ai/ha
Method in brief: as §1

morningglory [4] = test: Test A preemergence; format: in vivo, Ipomoea spp.; details: for Morningglory plant response rating: 500 g ai/ha
Method in brief: as §1

pigweed [5] = test: Test A preemergence; format: in vivo, Amaranthus retroflexus; details: for Pigweed plant response rating: 500 g ai/ha
Method in brief: as §1

velvetleaf [6] = test: Test A preemergence; format: in vivo, Abutilon theophrasti; details: for Velvetleaf plant response rating: 500 g ai/ha
Method in brief: as §1

wheat [7] = test: Test A preemergence; format: in vivo, Triticum aestivum; details: for Wheat plant response rating: 500 g ai/ha
Method in brief: as §1

corn [8] = test: Test A preemergence; format: in vivo, Zea mays; details: for Corn plant response rating: 500 g ai/ha
Method in brief: as §1

barnyardgrass [9] = test: Test A postemergence; format: in vivo, Echinochloa crus-galli
Method in brief: as §1

large (Lg) crabgrass [10] = test: Test A postemergence; format: in vivo, Digitaria sanguinalis
Method in brief: as §1

giant foxtail [11] = test: Test A postemergence; format: in vivo, Setaria faberii
Method in brief: as §1

morningglory [12] = test: Test A postemergence; format: in vivo, Ipomoea spp.
Method in brief: as §1

pigweed [13] = test: Test A postemergence; format: in vivo, Amaranthus retroflexus
Method in brief: as §1

velvetleaf [14] = test: Test A postemergence; format: in vivo, Abutilon theophrasti
Method in brief: as §1

wheat [15] = test: Test A postemergence; format: in vivo, Triticum aestivum
Method in brief: as §1

corn [16] = test: Test A postemergence; format: in vivo, Zea mays
Method in brief: as §1

rice = test: Test B flooded paddy test; format: in vivo, Oryza sativa; details: Flood, 250 g ai/ha; 0 to 100 scale where 0 is no effect and 100 is complete control
Method in brief: (§2)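 Scores from 0 (no effect) to 100 (complete control) are visual comparisons with controls, taken 13 to 15 days after compound was applied into floodwater 3 cm deep around 2-leaf plants.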

sedge, umbrella = test: Test B flooded paddy test; format: in vivo, Cyperus difformis; details: Flood, 250 g ai/ha; 0 to 100 scale where 0 is no effect and 100 is complete control
Method in brief: as §2

Heteranthera limosa = test: Test B flooded paddy test; format: in vivo; details: Flood, 250 g ai/ha; 0 to 100 scale where 0 is no effect and 100 is complete control
Method in brief: as §2

barnyardgrass [17] = test: Test B flooded paddy test; format: in vivo, Echinochloa crus-galli; details: Flood, 250 g ai/ha; 0 to 100 scale where 0 is no effect and 100 is complete control
Method in brief: as §2

[18] = 125 g ai/ha, 0 to 100 scale where 0 is no effect and 100 is complete control
[19] = 0 to 100 scale, 0 no effect, 100 complete control, approx. 10 days
[20] = 500 g ai/ha, 0 to 100 scale, 0 no effect, 100 complete control
[21] = 0 to 100 scale where 0 is no effect and 100 is complete control
[22] = 500 g ai/ha, 0 to 100 scale where 0 is no effect and 100 is complete control

Brc1cnc(Oc2ccccc2-n2ccc(Br)n2)nc1 [Compound 20]
80: Foxtail, Giant plant response rating (giant foxtail [3]; [19]) | Plant response rating, Pigweed (pigweed [13]; [18])
90: Crabgrass, Large plant response rating (large (Lg) crabgrass [2]; [19]) | Pigweed plant response rating (pigweed [5]; [19])
75: Plant response rating, Sedge, Umbrella (sedge, umbrella)
45: Plant response rating, Rice (rice)
70: Plant response rating, Velvetleaf (velvetleaf [14]; [20])
30: Plant response rating, Pigweed (pigweed [5]; [18]) | Plant response rating, Barnyardgrass (barnyardgrass [9]; [20]) | Plant response rating, Crabgrass, Large (large (Lg) crabgrass [10]; [20]) | Plant response rating, Corn (corn [16]; [20])
40: Plant response rating, Morningglory (morningglory [12]; [18]) | Plant response rating, Morningglory (morningglory [12]; [20])
100: Plant response rating, Pigweed (pigweed [13]; [20])
20: Barnyardgrass plant response rating (barnyardgrass [1]; [19]) | Plant response rating, Crabgrass, Large (large (Lg) crabgrass [2]; [18]) | Plant response rating, Foxtail, Giant (giant foxtail [3]; [18]) | Plant response rating, Velvetleaf (velvetleaf [14]; [18]) | Plant response rating, Wheat (wheat [15]; [20]) | Plant response rating, Barnyardgrass (barnyardgrass [17])
0: Plant response rating, Barnyardgrass (barnyardgrass [1]; [18]) | Plant response rating, Morningglory (morningglory [4]; [18]) | Morningglory plant response rating (morningglory [4]; [19]) | Plant response rating, Velvetleaf (velvetleaf [6]; [18]) | Velvetleaf plant response rating (velvetleaf [6]; [19]) | Plant response rating, Wheat (wheat [7]; [18]) | Wheat plant response rating (wheat [7]; [19]) | Plant response rating, Corn (corn [8]; [18]) | Corn plant response rating (corn [8]; [19]) | Plant response rating, Barnyardgrass (barnyardgrass [9]; [18]) | Plant response rating, Crabgrass, Large (large (Lg) crabgrass [10]; [18]) | Plant response rating, Foxtail, Giant (giant foxtail [11]; [18]) | Plant response rating, Wheat (wheat [15]; [18]) | Plant response rating, Corn (corn [16]; [18])
60: Plant response rating, Foxtail, Giant (giant foxtail [11]; [20]) | Plant response rating, Ducksalad (Heteranthera limosa)

N#Cc1cnc(Oc2ccccc2-n2cc(Br)cn2)nc1 [Compound 233]
20: Pigweed plant response rating (pigweed [5]; [21]) | Plant response rating, Barnyardgrass (barnyardgrass [9]; [22]) | Plant response rating, Foxtail, Giant (giant foxtail [11]; [22]) | Pigweed plant response rating (pigweed [13]; [18]) | Plant response rating, Rice (rice)
50: Plant response rating, Pigweed (pigweed [13]; [22]) | Plant response rating, Sedge, Umbrella (sedge, umbrella) | Plant response rating, Ducksalad (Heteranthera limosa)
30: Plant response rating, Velvetleaf (velvetleaf [14]; [22])
0: Barnyardgrass plant response rating (0 to 100 scale, 0 is no effect, 100 is complete control) (barnyardgrass [1]; 125 g ai/ha) | Barnyardgrass plant response rating (barnyardgrass [1]; [21]) | Crabgrass, Large plant response rating (0 to 100 scale) (large (Lg) crabgrass [2]; 125 g ai/ha) | Foxtail, Giant plant response rating (0 to 100 scale) (giant foxtail [3]; 125 g ai/ha) | Foxtail, Giant plant response rating (giant foxtail [3]; [21]) | Morningglory plant response rating (0 to 100 scale) (morningglory [4]; 125 g ai/ha) | Morningglory plant response rating (morningglory [4]; [21]) | Pigweed plant response rating (0 to 100 scale) (pigweed [5]; 125 g ai/ha) | Velvetleaf plant response rating (0 to 100 scale) (velvetleaf [6]; 125 g ai/ha) | Velvetleaf plant response rating (velvetleaf [6]; [21]) | Wheat plant response rating (0 to 100 scale) (wheat [7]; 125 g ai/ha) | Wheat plant response rating (wheat [7]; [21]) | Corn plant response rating (0 to 100 scale) (corn [8]; 125 g ai/ha) | Corn plant response rating (corn [8]; [21]) | Barnyardgrass plant response rating (barnyardgrass [9]; [18]) | Crabgrass, Large plant response rating (large (Lg) crabgrass [10]; [18]) | Foxtail, Giant plant response rating (giant foxtail [11]; [18]) | Morningglory plant response rating (morningglory [12]; [18]) | Plant response rating, Morningglory (morningglory [12]; [22]) | Velvetleaf plant response rating (velvetleaf [14]; [18]) | Wheat plant response rating (wheat [15]; [18]) | Plant response rating, Wheat (wheat [15]; [22]) | Corn plant response rating (corn [16]; [18]) | Plant response rating, Corn (corn [16]; [22])
10: Crabgrass, Large plant response rating (large (Lg) crabgrass [2]; [21]) | Plant response rating, Crabgrass, Large (large (Lg) crabgrass [10]; [22]) | Plant response rating, Barnyardgrass (barnyardgrass [17])

COc1cnn(-c2ccccc2Oc2ncc(Cl)cn2)c1 [Compound 186]
30: Barnyardgrass plant response rating (0 to 100 scale, 0 is no effect, 100 is complete control) (barnyardgrass [1]; 125 g ai/ha) | Plant response rating, Corn (corn [16]; [22])
20: Morningglory plant response rating (morningglory [4]; [21]) | Wheat plant response rating (wheat [7]; [21]) | Barnyardgrass plant response rating (barnyardgrass [9]; [18]) | Foxtail, Giant plant response rating (giant foxtail [11]; [18])
90: Plant response rating, Velvetleaf (velvetleaf [14]; [22])
60: Morningglory plant response rating (morningglory [12]; [18]) | Plant response rating, Wheat (wheat [15]; [22])
70: Velvetleaf plant response rating (0 to 100 scale) (velvetleaf [6]; 125 g ai/ha) | Plant response rating, Barnyardgrass (barnyardgrass [9]; [22]) | Plant response rating, Crabgrass, Large (large (Lg) crabgrass [10]; [22])
100: Barnyardgrass plant response rating (barnyardgrass [1]; [21]) | Crabgrass, Large plant response rating (0 to 100 scale) (large (Lg) crabgrass [2]; 125 g ai/ha) | Crabgrass, Large plant response rating (large (Lg) crabgrass [2]; [21]) | Foxtail, Giant plant response rating (giant foxtail [3]; [21]) | Pigweed plant response rating (0 to 100 scale) (pigweed [5]; 125 g ai/ha) | Pigweed plant response rating (pigweed [5]; [21]) | Velvetleaf plant response rating (velvetleaf [6]; [21]) | Plant response rating, Morningglory (morningglory [12]; [22]) | Pigweed plant response rating (pigweed [13]; [18]) | Plant response rating, Pigweed (pigweed [13]; [22])
80: Foxtail, Giant plant response rating (0 to 100 scale) (giant foxtail [3]; 125 g ai/ha) | Plant response rating, Foxtail, Giant (giant foxtail [11]; [22]) | Velvetleaf plant response rating (velvetleaf [14]; [18])
0: Morningglory plant response rating (0 to 100 scale) (morningglory [4]; 125 g ai/ha) | Wheat plant response rating (0 to 100 scale) (wheat [7]; 125 g ai/ha) | Corn plant response rating (0 to 100 scale) (corn [8]; 125 g ai/ha) | Corn plant response rating (corn [8]; [21]) | Wheat plant response rating (wheat [15]; [18]) | Corn plant response rating (corn [16]; [18]) | Plant response rating, Rice (rice) | Plant response rating, Sedge, Umbrella (sedge, umbrella) | Plant response rating, Ducksalad (Heteranthera limosa) | Plant response rating, Barnyardgrass (barnyardgrass [17])
40: Crabgrass, Large plant response rating (large (Lg) crabgrass [10]; [18])
